In PubChem BioAssay (NCI):
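96-well plates; 48 h exposure; 5 concentrations. Endpoints by linear interpolation between flanking doses. Not reached: highest tested concentration assigned. Here, GI50 denotes the concentration required for 50% inhibition of growth. TGI: concentration producing complete growth inhibition.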

Experiments:
Assay in all cases: NCI anticancer screen, dose series, 48 h
[1] = tested on: HCC-2998 colon
[2] = tested on: ACHN renal
[3] = tested on: HS 578T breast
[4] = tested on: SW-620 colon
[5] = tested on: IGROV1 ovarian
[6] = tested on: A498 renal
[7] = tested on: SF-539 CNS
[8] = tested on: OVCAR-5 ovarian
[9] = tested on: EKVX NSCLC
[10] = tested on: LOX IMVI melanoma

| SMILES | GI50 [1] [µM] | TGI [1] [µM] | GI50 [2] [µM] | TGI [2] [µM] | GI50 [3] [µM] | TGI [3] [µM] | GI50 [4] [µM] | TGI [4] [µM] | GI50 [5] [µM] | TGI [5] [µM] | GI50 [6] [µM] | TGI [6] [µM] | GI50 [7] [µM] | TGI [7] [µM] | GI50 [8] [µM] | TGI [8] [µM] | GI50 [9] [µM] | TGI [9] [µM] | GI50 [10] [µM] | TGI [10] [µM] |
| --- | --- | --- | --- | --- | --- | --- | --- | --- | --- | --- | --- | --- | --- | --- | --- | --- | --- | --- | --- | --- |
| CC12CCC3C(CCC4Cc5[nH]c6ccccc6c5CC43C)C1CCC2O (stereo not drawn) | 0.633 | 2.54 | 0.967 | > 100 | 0.362 | 1.88 | 0.497 | > 100 | 0.768 | > 100 | 0.696 | 6.44 | 1.2 | 3.77 | > 100 | > 100 | 3.69 | > 100 | 1.01 | 7.13 |
| CCc1nc(N)nc(N)c1-c1ccc(NCCN)c([N+](=O)[O-])c1 |  | 50.7 |  | > 100 |  | > 100 |  | > 100 |  | > 100 |  | > 86.1 |  | > 100 |  | > 100 |  | > 100 |  | > 100 |
| Cn1cc(-c2ccc3c(Nc4cccc(NC(=O)Nc5cccc(F)c5)c4)ncnc3c2)cn1 | 4.81 | 16.2 | 2.17 | 13.2 | 1.5 | 9.79 | 1.9 | 4.45 | 1.3 | 11.2 | 0.0532 | 2.99 | 0.0554 | 2.21 | 10.3 | 22 | 6.22 | 24.3 | 1.55 | 3.64 |
| COC(=O)CCC(=O)C(=O)OC | 25300 | 73000 | 16300 |  | 26600 | 97100 | 53600 |  | 19000 | 76800 | 18500 | 39700 | 24500 |  | 26100 |  | 20600 |  | 13300 |  |
| CCCCON(OC(=O)c1ccccc1)C(=O)c1ccccc1 | > 100 | > 100 | > 100 | > 100 | > 100 | > 100 | > 100 | > 100 | > 100 | > 100 | > 100 | > 100 | > 100 | > 100 | > 100 | > 100 | > 100 | > 100 | > 100 | > 100 |
| CC(=O)NCCc1c2c(c3nccc4c3c1Nc1ccccc1-4)OCS2 | 45.8 | > 100 | 0.199 | 3.27 | 8.19 | 37 | 0.226 | 8.15 | 0.976 | 5.61 | 0.698 | 19.1 | 6.63 | 25.1 | 5.21 | 21.3 | 2.05 | 16.1 | 1.26 | 3.85 |
| N#Cc1c(-c2ccccc2)nc(SCC2CO2)nc1N1CCOCC1 (stereo not drawn) | 0.253 | 18.2 | 4.27 | > 100 | 1.93 | 11.8 | 28.8 | > 100 | 2.6 | 25.9 | 1.26 | 5.42 | 10.6 | > 95.4 | 5.05 | > 83.3 | 4.73 | > 78.5 | 9.49 | > 100 |
| FC(F)(F)Oc1cccc(-c2cnc3ccc(-c4ccncc4)nn23)c1 | 4.47 | > 100 | 0.447 | 4.8 | 1.21 | 4.24 | 0.801 | > 100 | 0.502 | 5.46 | 0.365 | 2.42 | 1.13 | 7.4 | 1.96 | > 100 | 1.39 | > 100 | 1.07 | 10.2 |
| COc1cc2c(cc1O)CC[C@@H]1[C@@H]2CC[C@]2(C)[C@@H](NCCN(C)C)CC[C@@H]12 | 0.22 | 0.716 | 0.459 | 0.991 | 0.277 | 1.1 | 0.14 | 0.556 | 0.407 | 0.954 | 0.164 | 0.636 | 0.083 | 0.264 | 0.314 | 0.856 | 0.341 | 0.804 | 0.11 | 0.405 |
| CC1(C)N=C(N)N=C(N)N1c1cccc(CCCCc2cccc(S(=O)(=O)F)c2)c1 | 3.17 | > 56.3 | 11.8 | > 100 | 51.1 | > 100 | 0.342 | > 100 | 0.157 | > 58.3 | 7.36 | > 100 | 0.773 | 18.8 |  | > 100 | 19.2 | > 100 | 0.424 | > 100 |
| COc1cc(C(=O)/C=C/c2c(C)n([O-])c3ccc(C)cc3[n+]2=O)cc(OC)c1OC | 17 | 31 | 2.23 | 5.6 | 14.7 | 60.7 | 1.53 | 3.02 | 3.8 | 13 | 14.5 | 38.6 | 2.84 | 7.12 | 12.8 | 29.6 | 19.4 | > 100 | 2.11 | 5.91 |
